Measured values taken from the supplement of paper PMC10307832.

What was measured:
Experiment in all cases: relative viability (nuclei count vs DMSO), 5 days (fraction); higher = more cells survive
[1] = compound: C1=CC2=C(C=C(C(=C2N=C1)O)N=NC3=CC4=C(C=C3)C=C(C=C4)S(=O)(=O)O)S(=O)(=O)O + CC(=O)c1c(C)c2cnc(Nc3ccc(N4CCNCC4)cn3)nc2n(C2CCCC2)c1=O [Palbociclib] (partner 0.5 µM)
Method in brief: (§1)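 Lung cancer cell lines in 1536-well plates were dosed by pin tool the day after seeding, either with one drug alone or with a fixed anchor-drug dose plus five library-drug doses (not always all listed) in √10 steps. After 5 days, cells were fixed and their nuclei stained in one step (final 0.05% Triton X-100, 1% formaldehyde, 1 ug/ml Hoechst), then counted on 4× images. Relative viability is the nuclei count in treated wells divided by that in vehicle wells. Values are medians of duplicate plates.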

[2] = compound: C1=CC2=C(C=C(C(=C2N=C1)O)N=NC3=CC4=C(C=C3)C=C(C=C4)S(=O)(=O)O)S(=O)(=O)O + CC1(C)CCC(c2ccc(Cl)cc2)=C(CN2CCN(c3ccc(C(=O)NS(=O)(=O)c4ccc(N[C@H](CCN5CCOCC5)CSc5ccccc5)c(S(=O)(=O)C(F)(F)F)c4)cc3)CC2)C1 [Navitoclax] (partner 0.5 µM)
Method in brief: as §1

[3] = compound: O=C(NC1CCNCC1)c1n[nH]cc1NC(=O)c1c(Cl)cccc1Cl [AT-7519] + C[C@@H](Oc1cc(-c2cnn(C3CCNCC3)c2)cnc1N)c1c(Cl)ccc(F)c1Cl [Crizotinib] (partner 1 µM)
Method in brief: as §1

[4] = compound: O=C(NC1CCNCC1)c1n[nH]cc1NC(=O)c1c(Cl)cccc1Cl [AT-7519] + C[C@]1(O)C[C@@H](c2nc(-c3ccc4ccc(-c5ccccc5)nc4c3)c3c(N)nccn32)C1 [Linsitinib] (partner 1 µM)
Method in brief: as §1

Row | Cell Line | relative viability ([1]; first compound 0.08 µM) | relative viability ([1]; first compound 0.253 µM) | relative viability ([1]; first compound 0.8 µM) | relative viability ([1]; first compound 2.53 µM) | relative viability ([1]; first compound 8 µM) | relative viability ([2]; first compound 0.08 µM) | relative viability ([2]; first compound 0.253 µM) | relative viability ([2]; first compound 0.8 µM) | relative viability ([2]; first compound 2.53 µM) | relative viability ([2]; first compound 8 µM) | relative viability ([3]; first compound 0.01 µM) | relative viability ([3]; first compound 0.03162 µM) | relative viability ([3]; first compound 0.3162 µM) | relative viability ([3]; first compound 1 µM) | relative viability ([4]; first compound 0.01 µM) | relative viability ([4]; first compound 0.03162 µM) | relative viability ([4]; first compound 0.3162 µM) | relative viability ([4]; first compound 1 µM)
1 | BEN | 0.499 | 0.426 | 0.489 | 0.458 | 0.448 | 0.0579 | 0.0527 | 0.0545 | 0.0678 | 0.0519 | 0.897 | 0.754 | 0.985 | 0.83 | 0.887 | 0.894 | 0.864 | 0.785
2 | CAL-12T | 0.471 | 0.352 | 0.415 | 0.481 | 0.351 | 1.2 | 1.45 | 1.14 | 1.5 | 1.35 | 0.562 | 0.537 | 0.201 | 0.16 | 0.755 | 0.752 | 0.69 | 0.314
3 | COR-L23 | 0.326 | 0.346 | 0.274 | 0.299 | 0.39 | 1 | 0.969 | 1.06 | 1.06 | 0.612 | 0.639 | 0.632 | 0.653 | 0.132 | 0.82 | 0.776 | 0.481 | 0.137
4 | COR-L 105 | 0.391 | 0.433 | 0.449 | 0.426 | 0.384 | 0.905 | 0.7 | 0.779 | 0.75 | 0.843 | 0.823 | 0.784 | 0.469 | 0.289 | 0.962 | 0.907 | 0.867 | 0.516
5 | EKVX | 0.542 | 0.359 | 0.35 | 0.48 | 0.344 | 0.985 | 0.868 | 0.867 | 0.98 | 1.02 | 0.933 | 0.85 | 0.699 | 0.894 | 0.963 | 0.949 | 0.928 | 0.959
6 | EMC-BAC-2 | 0.528 | 0.541 | 0.509 | 0.519 | 0.537 | 1.45 | 1.11 | 1.13 | 1.2 | 1.11 | 0.766 | 0.744 | 0.746 | 0.881 | 0.823 | 0.816 | 0.778 | 0.77
7 | EPLC-272H | 0.369 | 0.31 | 0.325 | 0.371 | 0.316 | 1.22 | 1.11 | 1.01 | 1.24 | 1.23 | 0.896 | 0.918 | 0.809 | 0.934 | 0.999 | 1.1 | 0.945 | 1.18
8 | H3255 | 0.303 | 0.313 | 0.334 | 0.344 | 0.313 | 0.502 | 0.477 | 0.487 | 0.604 | 0.646 | 0.942 | 0.838 | 0.849 | 0.756 | 0.964 | 0.888 | 0.909 | 0.788
9 | HARA | 0.249 | 0.244 | 0.277 | 0.221 | 0.245 | 1.15 | 1.15 | 1.18 | 1.14 | 1.11 | 1.03 | 1.1 | 0.974 | 0.786 | 1.15 | 0.92 | 0.945 | 0.671
10 | HCC-15 | 0.759 | 0.658 | 0.737 | 0.67 | 0.723 | 0.754 | 0.693 | 0.692 | 0.693 | 0.705 | 0.864 | 0.718 | 0.741 | 0.502 | 0.961 | 0.879 | 0.724 | 0.43
11 | HCC-44 | 1.02 | 0.96 | 0.964 | 1.01 | 0.975 | 1.03 | 0.863 | 1.01 | 1.02 | 0.969 | 0.773 | 0.781 | 0.903 | 0.778 | 0.677 | 0.62 | 0.678 | 0.543
12 | HCC-78 | 0.566 | 0.463 | 0.505 | 0.45 | 0.466 | 0.776 | 0.667 | 0.879 | 0.826 | 0.757 | 0.33 | 0.324 | 0.331 | 0.42 | 0.52 | 0.452 | 0.567 | 0.374
13 | HCC-366 | 0.459 | 0.385 | 0.377 | 0.391 | 0.325 | 1.07 | 0.839 | 0.977 | 1.07 | 1.07 | 0.463 | 0.668 | 0.457 | 0.179 | 0.639 | 0.522 | 0.429 | 0.185
14 | HCC-827 | 0.537 | 0.451 | 0.492 | 0.455 | 0.542 | 1 | 0.977 | 0.995 | 1.03 | 1 | 0.895 | 0.945 | 0.862 | 0.855 | 0.959 | 0.973 | 0.946 | 0.899
15 | HOP-62 | 0.481 | 0.423 | 0.42 | 0.513 | 0.499 | 1.1 | 1.03 | 1.12 | 1.07 | 1.1 | 0.893 | 0.966 | 0.675 | 0.889 | 0.93 | 0.859 | 0.682 | 1.05
16 | LC-2-ad | 0.573 | 0.493 | 0.499 | 0.493 | 0.528 | 0.516 | 0.517 | 0.507 | 0.402 | 0.521 | 0.465 | 0.467 | 0.499 | 0.234 | 0.754 | 0.832 | 0.908 | 0.464
17 | LCLC-97TM1 | 0.236 | 0.258 | 0.189 | 0.222 | 0.257 |  | 0.224 |  | 0.509 | 0.41 | 0.334 | 0.254 | 0.328 | 0.191 | 0.189 | 0.155 | 0.17 | 0.151
18 | LK-2 | 0.768 | 0.529 | 0.626 | 0.77 | 0.721 | 1.01 | 0.797 | 0.888 | 0.79 | 0.687 | 0.229 | 0.235 | 0.251 | 0.227 | 0.514 | 0.448 | 0.368 | 0.255
19 | LOU-NH91 | 0.573 | 0.524 | 0.503 | 0.559 | 0.558 | 0.72 | 0.672 | 0.704 | 0.723 | 0.687 | 0.73 | 0.742 | 0.766 | 0.711 | 0.984 | 0.894 | 0.916 | 0.776
20 | LU99A | 0.472 | 0.43 | 0.381 | 0.435 | 0.42 | 0.815 | 0.913 | 0.8 | 0.813 | 0.742 | 0.579 | 0.539 | 0.517 | 0.357 | 0.514 | 0.577 | 0.54 | 0.404
21 | LXF-289 | 0.672 | 0.551 | 0.559 | 0.608 | 0.553 | 1 | 0.928 | 0.894 | 0.998 | 0.919 | 0.838 | 0.898 | 0.811 | 0.816 | 0.957 | 1.02 | 1.04 | 0.933
22 | NCI-H23 | 0.538 | 0.471 | 0.448 | 0.574 | 0.477 | 1.09 | 0.742 | 0.936 | 0.89 | 1.01 | 0.544 | 0.446 | 0.543 | 0.318 | 0.591 | 0.619 | 0.523 | 0.255
23 | NCI-H322M | 0.473 | 0.462 | 0.501 | 0.454 | 0.514 | 1.35 | 1.22 | 1.19 | 1.16 | 1.22 | 0.848 | 0.93 | 0.892 | 0.901 | 0.95 | 0.926 | 0.962 | 0.946
24 | NCI-H441 | 0.22 | 0.206 | 0.21 | 0.209 | 0.216 | 0.706 | 0.573 |  | 0.479 | 0.431 | 0.656 | 0.905 | 0.673 | 0.428 | 0.553 | 0.482 | 0.487 | 0.395
25 | NCI-H460 | 0.174 | 0.081 | 0.183 | 0.279 | 0.229 | 1.2 | 1.09 | 1.1 | 1.11 | 1.04 | 0.858 | 0.9 | 0.608 | 0.0144 | 0.712 | 0.63 | 0.159 | 0.0184
26 | NCI-H520 | 0.247 | 0.247 | 0.27 | 0.237 | 0.212 | 1.17 | 0.99 | 1.07 | 1.07 | 1.13 | 0.753 | 0.768 | 0.595 | 0.269 | 1.01 | 0.88 | 0.82 | 0.454
27 | NCI-H647 | 0.413 | 0.404 | 0.386 | 0.387 | 0.37 | 1.19 | 0.955 | 0.938 | 1.24 | 1.23 | 0.812 | 0.873 | 0.965 | 0.411 | 0.982 | 1.13 | 1.38 | 0.48
28 | NCI-H727 | 0.674 | 0.652 | 0.659 | 0.634 | 0.694 | 0.358 | 0.378 | 0.415 | 0.453 | 0.49 | 0.968 | 0.875 | 0.6 | 0.27 | 0.287 | 0.309 | 0.163 | 0.167
29 | NCI-H838 | 0.254 | 0.216 | 0.227 | 0.249 | 0.26 | 1.24 | 1.23 | 1.17 | 1.09 | 1.2 | 0.805 | 0.826 | 0.571 | 0.194 | 1.03 | 1.01 | 0.74 | 0.149
30 | NCI-H1355 | 0.401 | 0.372 | 0.368 | 0.395 | 0.429 | 1.03 | 0.944 | 0.913 | 1.03 | 0.96 | 1.1 | 1.02 | 1.13 | 0.943 | 0.795 | 0.737 | 0.79 | 0.722
